Two compounds from patent US8546366B2, “Method for inhibition of tumor cell growth using (22R)-5α-lanosta-8,24-dien-3β,15α,21-triol” (Mackay Memorial Hospital, priority 2011, dated 2013) can be followed below.

Series [1] concerns caspase 3 and caspase 8. Put plainly: Caspase dependence of growth inhibition and caspase expression. Type of series: cell-based. The text has this: Thus, the compound may induce apoptosis in a caspase-independent pathway.
Series [2] has as its system tumor cells. Put plainly: DNA gel electrophoresis, inter-nucleosomal DNA cleavage. The conditions noted are these: 5 μg/ml; 24 hours; 1.5% agarose gel. In kind it is cell-based. The procedure: Lane 1, molecular marker; Lane 2, control group; Lane 3, experimental group (treated with 5 μg/ml of the compound for 24 hours).
In addition to the morphological changes described above, cells may show some biochemical changes during cell apoptosis, including chromatin condensation, formation of apoptotic body due to cell fragmentation, and inter-nucleosomal cleavage of DNA that leading to formation of DNA ladder in DNA electrophoresis. To confirm the relationship of inhibition activity between the compound and the stage of cell apoptosis, the experiment adopted DNA electrophoresis to examine inter-nucleosomal cleavage of DNA into DNA ladder at late stage of cell apoptosis.
Total DNAs were extracted and analyzed by 1.5% agarose gel electrophoresis in TBE buffer (5 mM TBE buffer containing 1 μM EDTA, pH 8.0). The gel was stained with ethidium bromide and visualized under UV.

The test system of series [3] is human pancreatic cancer cell line BxPC-3. Put plainly: MTT cell survival assay, pancreatic cancer cells. In kind it is cell-based. The procedure: The test adopted the cell survival analysis (i.e., the MTT assay as described above). The purified compound was added into the culture media with human pancreatic cancer cell line BxPC-3 to test for tumor cell survival. This survival assay was carried out with the abovementioned MTT assay, wherein the pancreatic cancer cell line BxPc-3 was purchased from American Type Culture Collection (ATCC), the cell line originated from the epithelium of human pancreatic adenocarcinomas.
The human pancreatic cancer cell line BxPc-3 was cultivated in DMEM media containing 100 IU/ml penicillin (Invitrogen, Carlsbad, Calif.), 100 μg/ml streptomycin (Invitrogen, Carlsbad, Calif.), 2 mM glutamin (Invitrogen, Carlsbad, Calif.), and 10% fetal calf serum (Atlanta Biologicals, Norcross, Ga.). The proliferated cells were treated with the compound in the concentration of 0 (the control group), 5 and 10 μg/ml (the experimental group), respectively. The cells were incubated at 37° C. in a 5% CO2 incubator for 24-72 hours. 500 μg/ml of MTT was added into each well in the dark and incubated for 4 hours, followed by the addition of 500 μl of isopropanol to stop the reaction. The plates were read on an ELISA reader at wavelength of 570 nm to determine the cell survival rates. The results were reported as the average±(plus/minus) SEM (Standard Error in the Mean). […]

Series [4] relates to human normal monocytes isolated from peripheral blood mononuclelar cells. Put plainly: Viability of human normal monocytes. In kind it is cell-based. To be noted: for effect on normal monocytes: normal human peripheral blood monocytes. How it is done: FIG. 4 is a morphological assessment of human normal peripheral blood monocytes treated by the compound. Liu's stain method was used for morphological observation. (A) Control group and (B) Experimental group (treated with 5 μg/ml of the compound for 1 day).

The test system of series [5] is human cervical adenocarcinoma cell line HeLa. Put plainly: MTT cell survival assay, cervical adenocarcinoma cells. The conditions noted are these: 5 μg/ml, 72 hours. Type of series: cell-based. How it is done: The test adopted the cell survival analysis (i.e., the MTT assay as described above). The purified compound was added into the culture media with human cervical adenocarcinoma cell line HeLa to test for tumor cell survival. This survival assay was carried out with the abovementioned MTT assay, wherein the cervical adenocarcinoma cell line HeLa was purchased from American Type Culture Collection (ATCC), the cell line originated from the epithelium of human cervical adenocarcinoma.
(§1) The human cervical adenocarcinoma cell line HeLa was cultivated in DMEM media containing 100 IU/ml penicillin (Invitrogen, Carlsbad, Calif.), 100 μg/ml streptomycin (Invitrogen, Carlsbad, Calif.), 2 mM glutamin (Invitrogen, Carlsbad, Calif.), and 10% fetal calf serum (Atlanta Biologicals, Norcross, Ga.). The proliferated cells were treated with the compound in the concentration of 0 (the control group) and 5 μg/ml (the experimental group), respectively. The cells were incubated at 37° C. in a 5% CO2 incubator for 24-72 hours. 500 μg/ml of MTT was added into each well in the dark and incubated for 4 hours, followed by the addition of 500 μl of isopropanol to stop the reaction. The plates were read on an ELISA reader at wavelength of 570 nm to determine the survival rates.
For orientation: Tetrazolium dyes change colour on reduction, which living cells bring about.

Series [6] has as its system human leukemic cell U937. Put plainly: MTT cell survival assay, leukemic cells U937. In kind it is cell-based. The procedure:
Examples of the present invention adopted anti-tumor drugs screening model of National Cancer Institute (NCI) to examine inhibitory effect of the compound on cancer cells. The compound was added into culture medium containing leukemic cells U937 (a human monoblastoid leukemic cell line) to test for tumor cell survival. Cell survival rate is determined by well known MTT assay, and U937, a human myeloid leukemic cell line obtained from American Type Culture Collection (ATCC), is belonged to one of human acute leukemic cell lines and is classified as monoblasts during hematopoietic differentiation.
MTT assay is a commonly used method for analysis of percent of viable cells, wherein MTT (3-[4,5-dimethylthiazol-2-yl]2,5-diphenyltetrazolium bromide) is a yellow color dye that can be absorbed by living cells and be converted by mitochondria succinate tetrazolium reductase to water insoluble purple-blue formazan. Therefore, the amount of formazan formation can be used as an assessment tool to determine the survival rate of cells.
The human leukemia cell line U937 was cultivated in RPMI 1640 medium containing fetal calf serum for 24 hours and maintained in the exponential growth condition. The proliferating cells were treated with the compound in the concentration of 0 (the control group), 1.25, 2.5, 5 or 10 μg/ml at 37° C. under 5% CO2 for 24-72 hours, respectively. Then MTT was added in a concentration of 500 μg/ml into each wells in the dark and incubated for 4 hours, followed by the addition of 500 μl of isopropanol to stop the reaction. The plates were read on an ELISA reader at wavelength of 570 nm to determine the cell survival rates. The results were reported as the average±(plus/minus) SEM (Standard Error in the Mean). For statistical analysis, the t-test was used to compare the difference between each experiment result. p<0.05 was considered statistically significant.

Series [7] relates to human leukemic cell U937. Put plainly: Mitochondria transmembrane potential, DiOC6(3) flow cytometry. To be noted: 5 μg/ml, 16 hours. In kind it is cell-based. How it is done: Human leukemic cell U937 was treated with the compound (5 μg/ml) for 16 hours. The same cells treated with anti-tumor agent camptothecin (4 μM) for 16 hours were used as positive control group, while untreated cells were used as control group. The cells were then washed with PBS solution, followed by addition of 40 nM 3,3′-dihexyloxacarbocyanine(DiOC6(3); Molecular Probes, Eugene, Oreg.) into culture medium at 37° C. in the dark and incubated for 15 minutes. The results were analyzed immediately using flow cytometry, wherein the excitation wavelength was set at 488 nm and emission wavelength set at 530 nm to detect fluorescence density and as representative of mitochondria transmembrane potential change.

Series [8] concerns U937, BxPC-3, CE-81T/VGH, HA22T/VGH and HeLa tumor cell lines. Put plainly: MTT assay, summary over the inhibited tumor cell lines. The conditions noted are these: range over U937, BxPC-3, CE-81T/VGH. In kind it is cell-based, human.
Series [9] concerns human ovarian cancer cell line SKOV-3. Put plainly: MTT cell survival assay, ovarian cancer cells. In kind it is cell-based. The conditions noted are these: 5 μg/ml, 72 hours. The procedure: The test adopted the cell survival analysis (i.e. the MTT assay as described above). The purified compound was added into the culture media of human ovarian cancer cell line SKOV-3 to test for tumor cell survival. This survival assay was carried out with the abovementioned MTT assay, wherein the ovarian cancer cell line SKOV-3 was purchased from American Type Culture Collection (ATCC), the cell line originated from the epithelium of human ovarian cancer.
as §1, with “ovarian cancer” for “cervical adenocarcinoma”, “SKOV-3” for “HeLa”

Series [10] concerns human leukemic cell line U937. Put plainly: Cell cycle analysis by flow cytometry. In kind it is cell-based. To be noted: 2.5 μg/ml, 48 hours. The procedure: Flow cytometer was used to analyze the effect of the compound on cell cycle of human leukemic cells.
The compound in concentration of 2.5 μg/ml was used to treat human leukemic cell line U937, and cells without addition of compound were served as the control group. The treated cells after 48 hours of treatment were fixed at 4° C. with 70% ethanol for 1 hour and stained for 30 minutes with propidium iodide solution (0.5 mg/ml of propidium iodide; 0.1 mg/ml of RNAse) contained in a CycleTEST PLUS DNA reagent kit (Becton Dickinson, Lincoln Park, N.J.). DNA content measurement on the collected 10^4 cells was performed on the FACS Calibur flow cytometer (Becton Dickinson), and the cell cycle changes were analyzed using a ModFit software (Becton Dickinson).
For orientation: A flow cytometer gives signals particle by particle.

For series [11], the system named is human esophageal cancer cell line CE-81T/VGH. Put plainly: MTT cell survival assay, esophageal cancer cells. In kind it is cell-based. The conditions noted are these: 5 μg/ml, 72 hours. The procedure:
The purified compound was added into the culture media with human esophageal cancer cell line CE-81T/VGH to test for tumor cell survival. This survival assay was carried out with the abovementioned MTT assay, wherein the CE-81T/VGH esophageal cancer cell line was obtained from Taipei Veteran General Hospital, the cell line originated from the epithelium of human esophageal cancer cells.
as §1, with “esophageal cancer” for “cervical adenocarcinoma”, “CE-81T/VGH” for “HeLa”

For series [12], the system named is human hepatoma cell line HA22T/VGH. Put plainly: MTT cell survival assay, hepatoma cells. The conditions noted are these: 5 μg/ml, 72 hours. Type of series: cell-based. The procedure:
The test adopted the cell survival analysis (i.e., the MTT assay as described above). The purified compound was added into the culture media with human hepatoma cell line HA22T/VGH to test for tumor cell survival. This survival assay was carried out with the abovementioned MTT assay, wherein the hepatoma cell line HA22T/VGH was obtained from Taipei Veteran General Hospital, the cell line originated from the human hepatoma.
as §1, with “hepatoma” for “cervical adenocarcinoma”, “HA22T/VGH” for “HeLa”

Consider `CC[C@@]1(O)C(=O)OCc2c1cc1n(c2=O)Cc2cc3ccccc3nc2-1` [camptothecin, reference compound], for which, in [1], the “block of induced growth inhibition by caspase 3 and pan-caspase inhibitors” value is reported as “could block”.
Turning to `CC(C)=CCC[C@@H](CO)[C@H]1C[C@H](O)[C@@]2(C)C3=C(CC[C@]12C)[C@@]1(C)CC[C@H](O)C(C)(C)[C@@H]1CC3` [the compound, (22R)-5α-lanosta-8,24-dien-3β,15α,21-triol], the “genomic DNA fragmentation (DNA ladder)” value in series [2] is reported as “induced the genomic DNA into oligonucleosomal fragmentations”. The inhibition rate in series [3] (5 μg/ml (summary)) is given as 49.1%. The highest inhibitory rate in series [3] (5 and 10 μg/ml groups, third day, highest rate) turned out to be 48.5%; in [6] (U937, highest rate, 5 and 10 μg/ml groups, third day), 99.8%. This compound also showed a viability inhibition in series [4] (human normal monocytes) below 10%. Moreover, the “effect on normal monocytes” value is “without toxicity to normal monocytes” in series [4] and “no effect” in [4] (listed as The compound). Further, the inhibitory rate in [5] was 56.8%; in [6] (U937, 1.25, 2.5, 5 and 10 μg/ml, all groups, third day), “more than 60%”; in [6] (U937, 5 and 10 μg/ml groups, third day), “more than 95%”; in series [11], 61.4%; in series [12], 90.3%. Besides, the IC50 result in series [6] (U937 cells, MTT) is “about 2 μg/ml”. The “mitochondria transmembrane potential change” value in series [7] is recorded as “did not be exhibited significantly reduction of transmembrane potential”. The “inhibition rate on tumor cell lines” value in [8] is on record as 48.5˜99.8%. In [9], the growth inhibition result is given as “could not inhibit the growth”. Also, the cell cycle distribution entry in series [10] was “hypoploidy, G2/M phase arrest, and polyploidy”.
